# Experimental data from patent US4714711A, “6-hydroxy-2(2-hydroxy-4-methoxyphenyl)benzofuran derivatives to inhibit leukotriene biosynthesis” (Merck & Co., Inc., priority 1986, dated 1987).
# Experiments:
# leukotriene C4 = test: Inhibition of CXBG leukotriene production (A23187-stimulated, enzyme immunoassay); format: cell-based, mice; settings: Mus musculus; CXBG cells, 2×10^6 cells/ml, inhibitor 5 minutes at 37°, A23187 stimulation 10 minutes; read-out: IC50 (μg/ml) LTC4
# Procedure: (§1) Representative compounds of Formula I have been tested using the following assay to determine their mammalian leukotriene biosynthesis inhibiting activity and other relevant activities:
# (§2) CXBG cells grown intraperitoneally in CB4 B6 /F1 /J mice were washed 5 times in Dulbeccos phosphate buffered saline without calcium or magnesium, suspended in medium 199 (Gibco) at 2×10^6 cells/ml, and incubated 15 minutes at 37°. Inhibitor solutions in methanol were incubated with the cells (10μl/600 μl cells), for 5 minutes at 37°, and the cells were stimulated with 60 μl A23187 (50 μg/ml) for 10 minutes at 37°. Aliquots were removed for measurement of leukotriene C4 or thromboxane B2 by enzyme immunoassay as previously reported (D. K. Miller, et al., J. Immunological Methods, 81, 169-185, 1985). The percentage inhibition was calculated by the following: [formula]
# thromboxane B2 = test: Inhibition of CXBG prostoglandin (thromboxane B2) production (A23187-stimulated, enzyme immunoassay); format: cell-based, mice; settings: Mus musculus; CXBG cells, 2×10^6 cells/ml, inhibitor 5 minutes at 37°, A23187 stimulation 10 minutes; read-out: IC50 (μg/ml) Tx B2
# Procedure: as §1, §2
IC50 (leukotriene C4) [µg/mL],IC50 (thromboxane B2) [µg/mL],Structure (SMILES)
0.013,0.3,COc1ccc(-c2cc3ccc(O)cc3o2)c(O)c1 [6-hydroxy-2-(hydroxy-4-methoxyphenyl)benzofuran]
0.028,1,COc1cc(O)ccc1-c1cc2ccc(O)cc2o1 [6-hydroxy-2-(2-methoxy-4-hydroxyphenyl)benzofuran]
0.75,0.5,COc1ccc(-c2cc3cc(O)ccc3o2)c(O)c1 [5-hydroxy-2-(2-hydroxy-4-methoxyphenyl)benzofuran]
